{"source": "paper PMC8215295", "about": "“Identification and characterization of the pyridoxal 5’-phosphate allosteric site in Escherichia coli pyridoxine 5’-phosphate oxidase” (The Journal of Biological Chemistry, 2021)", "molecules": {"B1": {"name": "Escherichia coli pyridoxine 5'-phosphate oxidase quadruple variant K72I/Y129F/R133L/H199A (enzyme, UniProt P0AFI7 1-218, looked up)", "chain": "MSDNDELQQIAHLRREYTKGGLRRRDLPADPLTLFERWLSQACEAKLADPTAMVVATVDEHGQPYQRIVLLIHYDEKGMVFYTNLGSRKAHQIENNPRVSLLFPWHTLERQVMVIGKAERLSTLEVMKFFHSLPRDSQIGAWVSKQSSRISARGILESKFLELKQKFQQGEVPLPSFWGGFRVSLEQIEFWQGGEHRLADRFLYQRENDAWKIDRLAP", "notes": "pyridoxine 5'-phosphate oxidase (PNPO, EC 1.4.3.5) of Escherichia coli, encoded by pdxH; the entire polypeptide chain is made by 218 residues; active site impaired by four substitutions; Gene cloned in pET22b(+) between NdeI and NcoI; no tag is mentioned; Modelled residues: 7-218 in 6YLZ; 17-126 and 176-218 (chain A), 14-166 and 170-218 (chain B) in 6YMH; also called ePNPOqm; source: E. coli …"}}, "key": {"[1]": {"molecular_target": "T1, ePNPO K145A/F177A variant (Escherichia coli, UniProt P0AFI7, F177A/K145A)", "T1 construct": "the entire polypeptide chain is made by 218 residues; made in house; host or cells: E. coli MDS00, pET22b(+)", "T1 sequence (P0AFI7 whole entry K145A/F177A)": "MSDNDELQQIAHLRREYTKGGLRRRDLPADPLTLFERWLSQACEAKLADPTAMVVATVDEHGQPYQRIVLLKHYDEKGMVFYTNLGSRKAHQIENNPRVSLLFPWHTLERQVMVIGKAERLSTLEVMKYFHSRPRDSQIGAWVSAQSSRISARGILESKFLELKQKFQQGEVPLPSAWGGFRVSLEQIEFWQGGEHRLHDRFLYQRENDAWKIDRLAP", "test": "Fluorimetric PLP binding equilibrium", "method": "(§1) Binding of PLP to ePNPO variants was also analyzed using the spectrofluorometric method previously employed for the wildtype enzyme ([5]), which is based on the resulting increase of FMN fluorescence emission."}, "[2]": {"molecular_target": "T2, ePNPO N84A/K145A/F177A variant (Escherichia coli, UniProt P0AFI7, F177A/K145A/N84A)", "T2 construct": "the entire polypeptide chain is made by 218 residues; made in house; host or cells: E. coli MDS00, pET22b(+)", "T2 sequence (P0AFI7 whole entry N84A/K145A/F177A)": "as the sequence (P0AFI7 whole entry K145A/F177A) above, with N84A counted along it", "test": "Fluorimetric PLP binding equilibrium", "method": "as §1"}, "[3]": {"molecular_target": "T3, ePNPO N84W/K145A/F177A variant (Escherichia coli, UniProt P0AFI7, F177A/K145A/N84W)", "T3 construct": "the entire polypeptide chain is made by 218 residues; made in house; host or cells: E. coli MDS00, pET22b(+)", "T3 sequence (P0AFI7 whole entry N84W/K145A/F177A)": "as the sequence (P0AFI7 whole entry K145A/F177A) above, with N84W counted along it", "test": "Fluorimetric PLP binding equilibrium", "method": "as §1"}, "[4]": {"molecular_target": "T1, ePNPO K145A/F177A variant", "test": "PLP retention after SEC", "format": "binding", "details": "100 μM enzyme + equimolar PLP, with respect to protein subunits", "method": "(§2) It is known by previous experiments on wildtype ePNPO that, when the protein is incubated with PLP and then passed through an SEC column, it retains PLP tightly bound to it ([7]). […] All ePNPO variants (100 μM) were incubated with an equimolar amount of PLP. Then, they were passed through an SEC column and the stoichiometry of protein-bound PLP with respect to protein subunits was determined. The percentage of protein-bound PLP was 72 ± 8, 73 ± 10, and 73 ± 19, with the K145A/F177A, N84A/K145A/F177A and N84W/K145A/F177A ePNPO variants, respectively (Table 1)."}, "[5]": {"molecular_target": "T2, ePNPO N84A/K145A/F177A variant", "test": "PLP retention after SEC", "format": "binding", "details": "100 μM enzyme + equimolar PLP, with respect to protein subunits", "method": "as §2"}, "[6]": {"molecular_target": "T3, ePNPO N84W/K145A/F177A variant", "test": "PLP retention after SEC", "format": "binding", "details": "100 μM enzyme + equimolar PLP, with respect to protein subunits", "method": "as §2"}, "wildtype ePNPO [7]": {"molecular_target": "T4, wildtype ePNPO (Escherichia coli, UniProt P0AFI7)", "T4 construct": "the entire polypeptide chain is made by 218 residues; made in house; host or cells: E. coli MDS00, pET22b(+)", "test": "PLP retention after SEC", "format": "binding", "details": "100 μM enzyme + equimolar PLP, with respect to protein subunits", "method": "as §2"}, "wildtype ePNPO [8]": {"molecular_target": "T4, wildtype ePNPO", "details": "read-out: KD^PLP, fluorimetric PLP binding equilibrium; cited from earlier work"}, "wildtype ePNPO [9]": {"molecular_target": "T4, wildtype ePNPO", "details": "cited from earlier work"}, "wildtype ePNPO [10]": {"molecular_target": "T4, wildtype ePNPO", "details": "in solution; cited from earlier work"}, "[11]": {"tested_on": "ePNPO quadruple variant (K72I/Y129F/R133L/H199A)", "details": "ePNPO quadruple variant with impaired active site; cited from earlier work"}, "[12]": {"tested_on": "human pyridoxine 5’-phosphate oxidase", "parameters": "method as in PMID 32788630", "details": "human PNPO; parabolic inhibition model; cited from earlier work"}, "ePNPO": {"tested_on": "ePNPO", "details": "cited from earlier work"}, "ePNPO R23L variant [13]": {"molecular_target": "T5, ePNPO R23L variant (Escherichia coli, UniProt P0AFI7, R23L)", "T5 sequence (P0AFI7 whole entry R23L)": "as the sequence (P0AFI7 whole entry K145A/F177A) above, with R23L, A145K, A177F counted along it", "test": "PLP retention after SEC", "details": "100 μM enzyme + equimolar PLP, with respect to protein subunits"}, "ePNPO R23L/R24L variant [14]": {"molecular_target": "T6, ePNPO R23L/R24L variant (Escherichia coli, UniProt P0AFI7, R23L/R24L)", "T6 sequence (P0AFI7 whole entry R23L/R24L)": "as the sequence (P0AFI7 whole entry K145A/F177A) above, with R23L, R24L, A145K, A177F counted along it", "test": "PLP retention after SEC", "details": "100 μM enzyme + equimolar PLP, with respect to protein subunits"}, "ePNPO R23L variant [15]": {"molecular_target": "T5, ePNPO R23L variant", "test": "Fluorimetric PLP binding equilibrium"}, "ePNPO R23L/R24L variant [16]": {"molecular_target": "T6, ePNPO R23L/R24L variant", "test": "Fluorimetric PLP binding equilibrium"}, "R23L/R24L ePNPO": {"molecular_target": "R23L/R24L ePNPO (Escherichia coli, UniProt P0AFI7, R23L/R24L)", "sequence (P0AFI7 whole entry R23L/R24L)": "as the sequence (P0AFI7 whole entry K145A/F177A) above, with R23L, R24L, A145K, A177F counted along it", "test": "PLP binding stoichiometry, fluorimetric titration", "details": "titration of 2, 4 and 8 μM ePNPO with PLP"}, "ePNPO R23L/R24L variant [17]": {"molecular_target": "T6, ePNPO R23L/R24L variant", "test": "biochemical", "format": "biochemical", "parameters": "the entire polypeptide chain is made by 218 residues; made in house; host or cells: E. coli MDS00, pET22b(+)", "from_the_text": "Initial velocity data obtained with all variant forms were fitted to the Michaelis–Menten equation in order to obtain apparent VMAX and KM values as a function of PLP concentration.\nFigure 7 Kinetic analysis of PLP inhibition with Arg-cage variants. […] Initial velocity measurements shown in the left panels are the average ± standard deviation of three independent measurements. Saturation curves were fitted to the Michaelis–Menten equation, obtaining apparent VMAX and KM values as a function of PLP concentration. These are represented as 1/VMAX (blue symbols) and KM/VMAX (red symbols) in the right panels, in order to facilitate the interpretation of the PLP inhibition mechanism from the shape of graphs, which correspond to the classic secondary plots of the Y-intercept and slope derived from Lineweaver–Burk plots. As detailed in the Experimental Procedures section, initial velocity data and 1/VMAX and KM/VMAX values of each data set were globally fitted to Equations (3), (4), (5), obtaining the continuous lines shown in the graphs and the parameter values shown in Table 3.\nIn order to analyze the above-mentioned kinetic data, a general inhibition model was considered (Fig. 8A), in which PLP binds at both the active and allosteric sites. […] Therefore, the dissociation constant of the substrate binding equilibrium may be assumed to correspond to the Michaelis–Menten constant (KM) derived from steady-state kinetic measurements. Equations describing the dependence of initial velocity, 1/VMAX, and KM/VMAX on substrate and PLP concentration were derived on the basis of these assumptions (Equations (3), (4), (5)). Using these equations, initial velocity data as a function of substrate concentration, obtained at all different fixed PLP concentrations, were globally fit together with the previously obtained values of apparent 1/VMAX and KM/VMAX as a function of PLP concentration.\nInhibition kinetics were measured in 50 mM Na-Hepes pH 7.6. […] All saturation curves obtained by varying PNP at a fixed PLP concentration were independently analyzed using the Michaelis–Menten equation, obtaining apparent VMAX and apparent KM values, which were then used to calculate 1/appVMAX and appKM/appVMAX as a function of PLP concentration."}, "[18]": {"molecular_target": "the molecule itself", "test": "crystal structure; ePNPOqm without PLP, space group P3(1) 2 1, 1.56 Å; one subunit in the asymmetric unit, dimer generated by the crystallographic 2-fold axis; hanging drop, (NH4)2SO4, 298 K"}}, "note": "“And” between values parts separate entries of the source, which are not always exact repeats. Equal values may be shown once. “Also recorded” adds a separate entry of the source."}
{"molecule": "Cc1ncc(COP(=O)(O)O)c(C=O)c1O", "note": "[PLP, Pyridoxal 5’-phosphate]", "values": [{"measurement": "Kd", "setting": "[1]", "value": "470 ± 60", "unit": "nM"}, {"measurement": "Kd", "setting": "[2]", "value": "360 ± 50", "unit": "nM"}, {"measurement": "Kd", "setting": "[3]", "value": "330 ± 70", "unit": "nM"}, {"measurement": "PLP (%) protein-bound PLP retained after SEC", "setting": "[4]", "value": "72 ± 8", "unit": "%"}, {"measurement": "PLP (%) protein-bound PLP retained after SEC", "setting": "[5]", "value": "73 ± 10", "unit": "%"}, {"measurement": "PLP (%) protein-bound PLP retained after SEC", "setting": "[6]", "value": "73 ± 19", "unit": "%"}, {"measurement": "PLP (%) protein-bound PLP retained after SEC", "setting": "wildtype ePNPO [7]", "value": "70% and 69 ± 19%"}, {"measurement": "Kd", "setting": "wildtype ePNPO [8]", "value": 150, "unit": "nM"}, {"measurement": "αKI (PLP binding at allosteric site of ES complex)", "setting": "wildtype ePNPO [9]; WT, determined according to Figure 2A model", "value": "7.13 ± 0.52", "unit": "µM"}, {"measurement": "Ki", "setting": "wildtype ePNPO [9]; read-out: KI (PLP binding at the allosteric site), WT, determined according to Figure 2A model", "value": "590 ± 700", "unit": "nM"}, {"measurement": "type of PLP inhibition", "setting": "wildtype ePNPO [9]; wildtype ePNPO", "value": "linear mixed-type inhibition"}, {"measurement": "stoichiometry of PLP binding to the allosteric site", "setting": "wildtype ePNPO [10]", "value": "one PLP molecule per protein dimer"}, {"measurement": "stoichiometry of PLP binding", "setting": "[11]", "value": "two PLP molecules per dimer"}, {"measurement": "α value (allosteric coupling)", "setting": "[12]", "value": "about 3"}, {"measurement": "β coefficient (reduction of kCAT of PES complex)", "setting": "[12]", "value": 0.15}, {"measurement": "kOFF of PLP binding", "setting": "ePNPO", "value": 3.2, "unit": "s⁻¹"}, {"measurement": "kON of PLP binding", "setting": "ePNPO", "value": "1.13e+07", "unit": "M⁻¹ s⁻¹"}, {"measurement": "PLP (%) protein-bound PLP retained after SEC", "setting": "ePNPO R23L variant [13]", "value": "38 ± 11", "unit": "%"}, {"measurement": "PLP (%) protein-bound PLP retained after SEC", "setting": "ePNPO R23L/R24L variant [14]", "value": "30 ± 8", "unit": "%"}, {"measurement": "Kd", "setting": "ePNPO R23L variant [15]", "value": "580 ± 120", "unit": "nM"}, {"measurement": "Kd", "setting": "ePNPO R23L/R24L variant [16]", "value": "1000 ± 90", "unit": "nM"}, {"measurement": "PLP binding stoichiometry", "setting": "R23L/R24L ePNPO", "value": "two molecules of PLP per protein subunit; also recorded: four PLP molecules per enzyme dimer"}, {"measurement": "α (allosteric coupling coefficient)", "setting": "ePNPO R23L/R24L variant [17]", "value": 6.6}, {"measurement": "γ factor (PLP active site / allosteric site coupling)", "setting": "ePNPO R23L/R24L variant [17]", "value": 0.31}, {"measurement": "type of PLP inhibition", "setting": "ePNPO R23L/R24L variant [17]; Hepes buffer", "value": "parabolic inhibition"}, {"measurement": "Ki", "setting": "ePNPO R23L/R24L variant [17]; KI (PLP binding at the allosteric site), global fit (Fig. 8A model)", "value": "820 ± 20", "unit": "nM"}, {"measurement": "Ki", "setting": "ePNPO R23L/R24L variant [17]; KX (PLP binding at the active site), global fit (Fig. 8A model)", "value": "6580 ± 620", "unit": "nM"}, {"measurement": "αKI (PLP binding at allosteric site of ES complex)", "setting": "ePNPO R23L/R24L variant [17]; global fit (Fig. 8A model)", "value": "5.39 ± 1.14", "unit": "µM"}, {"measurement": "β (coefficient reducing kCAT of PES complex)", "setting": "ePNPO R23L/R24L variant [17]; global fit (Fig. 8A model)", "value": "0.42 and 0.42 ± 0.05"}, {"measurement": "Ki", "setting": "ePNPO R23L/R24L variant [17]; γKX (PLP binding at active site of PE complex), global fit (Fig. 8A model)", "value": "2050 ± 60", "unit": "nM"}]}
{"molecule": "B1", "values": [{"measurement": "stoichiometry N", "setting": "[18]", "value": 2}]}
